Measured values as given in patent publication US9688653B2, “Ethoxyphenyl thienyl compounds and methods for the treatment of bacterial infections” (Duke University, priority 2013, dated 2017).

What was measured:
E. coli K1 strain UTI89 [1] = assay: Secondary assay 2: T7 phage-mediated lysis assay; format: cell-based, Escherichia coli; conditions: read-out: T7 phage IC50
From the text: D. Secondary Assay 2: Screening for Inhibitors of Bacterial Capsule Biogenesis—T7 Lysis Inhibition
Purpose: This secondary assay measures the compound mechanistic specificity for inhibition of bacterial capsule formation and excludes inhibitors of phage replication using a different bacteriophage (T7). In this assay, an increase in phage-induced lysis correlates to a decrease in capsule formation.
Purpose: This secondary assay measures the compound mechanistic specificity for inhibition of bacterial capsule formation using a different bacterial phage (T7). In this assay, an increase in phage-induced lysis correlates to a decrease in capsule formation.
Assay Description: T7 phage-mediated lysis assay: This assay determined if the mechanism of action of the compound is inhibition of phage infectivity or replication. The T7 phage has a nearly identical genome to K1F, without encoding an endosialidase. Its cycle of replication is similar to that of K1F as well. However, T7 entry into E. coli is inhibited by K capsules. This secondary assay was conducted in the 96 well plate format. […] Compounds were added in quadruplicate to plates in a concentration dependent manner in the range of 100-0.39 μM, followed by addition of 100 μL of bacterial culture. 1% DMSO (final well concentration) was included. The plates were tape sealed and shaken vigorously for 1.5 hr. An initial OD600 reading was measured to identify compounds that cause growth retardation or bacterial killing in the absence of phage. Next, T7 phage (5 μL) was added to all of the test wells. The plates were resealed and shaken vigorously at 37° C., and measurements of OD600 for phage-mediated lysis were taken after 3 hr. True inhibitors of capsule yielded bacteria that were susceptible to T7 phage and lysed within 2 hr of the addition of phage. […] The positive control drug C7 (100 μM final well concentration) was used in this screen.
T7 phage counter assay. This secondary assay was performed as previously described and was used to distinguish compounds with phage inhibitory effects from true polysaccharide capsule inhibitors. […] Thus, the presence of a capsule inhibits T7-mediated lysis. In this assay, an increase in phage-induced lysis correlates to a decrease in capsule formation. True inhibitors of capsule yielded bacteria that were susceptible to T7 phage and lysed within 2 hr of the addition of phage. […] The positive control molecule C7 (100 μM final well concentration) was used in this screen.

[2] = test system: Bladder carcinoma 5637 cells; assay: Cytotoxicity counterscreen, CellTiter Glo, 72 hr; format: cell-based, human
Procedure: B. Counterscreen: Cytotoxicity Screening for Potential Inhibitors of Bacterial Capsule Biogenesis.
Purpose: This cell-based assay measures the cytotoxicity of compounds in bladder carcinoma 5637 cells using luminescent cell viability assay readout.
Cytotoxicity assay: The cytotoxicity assay was performed as described in Section 6: Appendix. Hit cytotoxicity and the 50% toxic concentration (CC50) was determined and compared to the IC50 to calculate the selectivity index.
Assay Description: Cytotoxicity: Dose response testing (dose range=300-0.58 μM) established the hit cytotoxicity data. Compounds were plated in 384-well microplates in a stacked dose response format using the same doses used in the efficacy dose response. Bladder carcinoma 5637 cells were added to the compounds, and 72 hr later cell viability was measured using CellTiter Glo (38). Hit cytotoxicity and the 50% toxic concentration (TC50) was determined and compared to the IC50 to calculate the therapeutic index. Test compounds are serially diluted in a plate to plate matrix or stacked plate matrix. All 320 compounds in a source plate are diluted together resulting in a 10 point dose response dilution series. It is visualized as a serial dilution series proceeding vertically through a stack of plates with the high dose plate on top and the low dose plate on the bottom.
Control Drug: Hyamine was used as a positive cytotoxic control. All wells contained 0.5% DMSO.
Preparation of Bladder carcinoma 5637 cells: Cells are harvested and resuspended to 80,000 cells per ml in Complete DMEM/F12®.
Endpoint Read: Following the three day incubation period, the assay plates were equilibrated to room temperature for 30 min and an equal volume (30 μL) of Cell Titer-Glo® reagent (Promega Inc.) is added to each well using a WellMate™ (Matrix, Hudson, N.H.) and plates are incubated for an additional 10 min at room temperature. At the end of the incubation, luminescence is measured using a Perkin Elmer Envision™ multi-label reader (PerkinElmer, Wellesley, Mass.) with an integration time of 0.1 s.
Cytotoxicity. Testing was performed essentially as previously described. Concentration-response testing was performed over a range 0.58-300 μM in a […] well plate format. Bladder carcinoma 5637 cells (ATCC HTB-9) were added to the compounds, and 72 hrs later cell viability was measured using CellTiter Glo (Promega). The 50% toxic concentration (TC50) was determined and compared to the IC50 to calculate the therapeutic index. Hyamine was used as a positive cytotoxic control. All wells contained 0.5% DMSO.

E. coli K1 strain UTI89 [3] = assay: microbe, parasite or virus in culture
From the text: The ability of the […] to bind to bacterial capsule, infect, and lyse E. coli UT189 was used as the primary assay to identify the effects of screened compounds on bacterial capsule formation. The phenotypic end-point assay measured the fluorescence generated by cellular processing of Alamar Blue as a direct indicator of cell viability. A total of […] compounds were screened using the primary assay. […] Hits were further evaluated using […] secondary assays for alternative measurement of compound-induced reduction in bacterial capsule formation (secondary assays 1 and 2) and specificity (secondary assays 3 and 4). Confirmed actives with an SI>5 were further investigated and subjected to chemical optimization, followed by secondary assay evaluation. Secondary assays more closely characterized the ability of the compounds to reduce bacterial capsule formation and can be used to examine the mechanism of action of the compounds. The combination of primary assay (to measure capsule reduction), counter assay (for general eukaryotic cell toxicity) and secondary assay (to measure reduction in capsule formation and specificity) were combined to allow a determination of probe efficacy, selectivity, and specificity.
A. Primary Assay: Screening for Inhibitors of Bacterial Capsule Biogenesis.
Primary assay: An end-point assay to measure the amount of K1 phage-induced bacterial cell lysis was employed to determine the compound effect on capsule biogenesis. K1 bacteriophage specifically binds the bacterial capsule during the initial stages of infection. Bacteria without capsule cannot be infected and lysed by the bacteriophage. […] A total of 338,740 compounds were screened at 100 μM in the primary screen Inhibition of phage lysis was calculated relative to the mean of the bacterial (positive) control on each microtiter plate. […] For calculation of S/B/Z value, and CV, the following formulae (in which SD stands for standard deviation) were used: S/B=mean signal/mean background; Z=1-3SD of sample+3SD of control mean of sample−mean of control; % CV=(SD mean signal/mean signal)×100.
IC50 values were calculated using a 4 parameter Levenburg-Marquardt algorithm, with the maximum and minimum locked at 0 and 100 respectively.
Primary assay: The primary assay was conducted in the 1,536 well plate format. Bacterial cultures of E. coli K1 strain UTI89 (cystitis isolate) and isogenic capsule mutant strains (as controls for phage infection) were grown and prepared at the screening center immediately prior to use. Overnight starting cultures of UTI89 were grown at 37° C., and inoculated into 1 liter of LB (starting OD600˜0.03), which was sufficient for screening 40 plates (including ˜10% waste) and ˜40,000 compounds as single points.
Control wells contained UTI89 (wt K1) with 0.5% DMSO as a simulated positive control; UTI89 with 0.5% DMSO and tetracycline for a negative growth control; and media plus vehicle control. 50 mL of LB Broth was inoculated with stock 150 μL E. coli UT189 and grown overnight at 37° C. The next day, cultures were diluted 1:75 in 1 L of LB Broth containing 0.5% DMSO. 3 μL of this culture was added to each plate well, and plates were incubated, inverted, at 37° C. for 2 hr. The K1F bacteriophage stock was diluted 1:8 in LB Broth containing 0.5% DMSO, and 1.5 μL of diluted phage (or media only) was added to the pre-plated test compound wells and appropriate control wells. The plates were centrifuged briefly, and then were incubated, inverted, at 37° C. for an additional 2 hr. Afterward, Alamar Blue reagent (Invitrogen, #DAL1100) was diluted 1:2 with LB broth and 1 μL was added to each plate well.

[4] = second round of synthetic analogues, n = 2
[5] = read-out: K1 phage IC50, second round of synthetic analogues, n = 3
[6] = first round of synthetic analogues, n = 2
[7] = read-out: K1 phage IC50, first round of synthetic analogues, n = 3
[8] = purchased analogue series, n = 2
[9] = read-out: K1 phage IC50, purchased analogue series, n = 3

Compound | IC50 [2] [µM] | IC50 (E. coli K1 strain UTI89 [1]; [6]) [µM] | IC50 (E. coli K1 strain UTI89 [3]; [7]) [µM] | further results
CCCc1ccc(-c2cc(NC(=O)c3ccc(Br)o3)c(C(=O)O)s2)cc1 [compound 56643013] | 46.4 |  |  | IC50 (E. coli K1 strain UTI89 [1]; [4]): < 0.625 µM; IC50 (E. coli K1 strain UTI89 [3]; [5]): 1.43 µM
CCCCOc1ccc(-c2cc(NC(=O)c3cc(Br)c(Br)o3)c(C(=O)O)s2)cc1 [compound 56643019] | 31.7 |  |  | IC50 (E. coli K1 strain UTI89 [1]; [4]): 1.25 to 2.5 µM; IC50 (E. coli K1 strain UTI89 [3]; [5]): 23.3 µM
CC(C)c1ccc(-c2cc(NC(=O)c3cc4ccccc4o3)c(C(=O)O)s2)cc1 [compound 53470434] | 47.2 | 2.71 | 42.9 | 
O=C(O)c1sc(-c2ccc(OCCC(F)(F)F)cc2)cc1NC(=O)c1c(F)cccc1F [CID 56643020] |  |  |  | IC50 (E. coli K1 strain UTI89 [1]): < 0.156 µM; Cytotoxicity CC50 / TC50 / IC50 ([2]; bladder carcinoma 5637 cells): 68.41 µM; IC50 (E. coli K1 strain UTI89 [3]; read-out: K1 phage IC50 (inhibition of K1 capsule formation)): 0.84 µM
CCCc1ccc(-c2cc(NC(=O)c3c(F)cccc3F)c(C(=O)O)s2)cc1 [compound 56643016] | 54.9 |  |  | IC50 (E. coli K1 strain UTI89 [1]; [4]): < 0.625 µM; IC50 (E. coli K1 strain UTI89 [3]; [5]): 2.63 µM
O=C(Nc1cc(-c2ccc(OCCC(F)(F)F)cc2)sc1C(=O)O)c1ccc(Br)o1 [compound 56643022] | 41.7 |  |  | IC50 (E. coli K1 strain UTI89 [1]; [4]): < 0.625 µM; IC50 (E. coli K1 strain UTI89 [3]; [5]): 0.84 µM
Cc1ccc(C(=O)Nc2cc(-c3ccccc3)sc2C(=O)O)s1 [compound 17546665] | 63.6 |  |  | IC50 (E. coli K1 strain UTI89 [1]; [8]): 29.7 µM; IC50 (E. coli K1 strain UTI89 [3]; [9]): > 100 µM
O=C(Nc1cc(-c2ccc(OC(F)(F)F)cc2)sc1C(=O)O)c1ccc(Br)o1 [compound 53495057] | 33.6 | 1.17 | 6.39 | 
CC(C)c1ccc(-c2cc(NC(=O)c3ccc(Br)s3)c(C(=O)O)s2)cc1 [compound 53470432] | 33.1 | 2.75 | > 100 | 
CC(C)c1ccc(-c2cc(NC(=O)c3c(F)cccc3F)c(C(=O)O)s2)cc1 [compound 53470439] | 32.4 | 1.27 | 7.09 | 
O=C(O)c1sc(-c2ccc(C(F)(F)F)cc2)cc1NC(=O)c1c(F)cccc1F [compound 53470440] | 44.8 | 3.8 | 23.7 | 
O=C(Nc1cc(-c2ccc(C(F)(F)F)cc2)sc1C(=O)O)c1cccc(F)c1 [compound 53470418] | 35.1 | 12.8 | > 100 | 
CCOc1ccc(-c2cc(NC(=O)c3c(F)cccc3C(F)(F)F)c(C(=O)O)s2)cc1 [compound 56643017] | 62 |  |  | IC50 (E. coli K1 strain UTI89 [1]; [4]): < 5 µM; IC50 (E. coli K1 strain UTI89 [3]; [5]): 52.6 µM
O=C(Nc1cc(-c2ccc(OCCC(F)(F)F)cc2)sc1C(=O)O)c1ccc(Br)o1 [CID 56643022] | 41.7 |  |  | IC50 (E. coli K1 strain UTI89 [1]; five probe analogues): < 0.625 µM; IC50 (E. coli K1 strain UTI89 [3]; read-out: K1 phage IC50, five probe analogues): 0.84 µM
Cc1ccc(-c2cc(NC(=O)c3cccc(F)c3)c(C(=O)O)s2)cc1 [compound 53470441] | 43.9 | 7.21 | 53.7 | 
O=C(O)c1sc(-c2ccc(OC(F)(F)F)cc2)cc1NC(=O)c1c(F)cccc1F [compound 53495055] | 51 | 1.35 | 13 | 
CC(C)(C)c1ccc(-c2cc(NC(=O)c3cc4ccccc4o3)c(C(=O)O)s2)cc1 [compound 53470424] | 34.5 | 2.83 | > 100 | 
O=C(Nc1cc(-c2ccc(OC(F)(F)F)cc2)sc1C(=O)O)c1cccc(F)c1 [compound 53495056] | 52.1 | > 5 | > 100 | 
CCOc1ccc(-c2cc(NC(=O)c3cc4ccccc4o3)c(C(=O)O)s2)cc1 [compound 53470427] | 193 | 2.75 | > 100 | 
O=C(O)c1sc(-c2ccccc2)cc1NC(=O)C1CCCC1 [compound 16393058] | 169 |  |  | IC50 (E. coli K1 strain UTI89 [1]; [8]): 56.6 µM; IC50 (E. coli K1 strain UTI89 [3]; [9]): > 100 µM
